Where no end group is shown, it is not given here.

The term MIC denotes the least concentration at which growth counts as inhibited.

Series [1] deals with X. axonopodis. Type of series: cell-based, Xanthomonas axonopodis. The note with it: OD 600 after 16 h of growth, serial two-fold dilutions, room temperature, n = 3.
Series [2] deals with sheep red blood cells (RBCs). Type of series: cell-based.

In the case of “LSLIAAAGKETIRQYLKNEIKKKGRKAVIAW [Syn-safencin]”, in series [1], the MIC turned out to be 8 µM. Moreover, the “hemolytic activity (in words)” value in series [2] is reported as “mild hemolytic activity”.

Values taken from publication PMC8887552 (The Journal of antibiotics, 2018).
